Assay results published in ChEMBL document CHEMBL4007507 (J Med Chem, 2017).
The source made the active and inactive calls. No cut-off for these calls is given here.

System: SJSA-1
Assay: cells
Conditions: Homo sapiens

Row | IC50 [nM] | SMILES
1 | 2690 | CN1[C@@H](c2nc(CC(=O)O)cs2)[C@H](c2cccc(Cl)c2F)[C@]2(C(=O)Nc3cc(Cl)ccc32)C12CCCCC2
2 | 8900 | CS(=O)(=O)NC(=O)[C@@H]1NC2(CCCCC2)[C@@]2(C(=O)Nc3cc(Cl)ccc32)[C@H]1c1cccc(Cl)c1F
3 | 190 | O=C(O)c1ccc(NC(=O)[C@@H]2NC3(CCCCC3)[C@@]3(C(=O)Nc4cc(Cl)ccc43)[C@H]2c2cccc(Cl)c2F)cc1F
4 | 240 | O=C(O)c1ccc(NC(=O)[C@@H]2NC3(CCCCC3)[C@@]3(C(=O)Nc4cc(Cl)ccc43)[C@H]2c2cccc(Cl)c2F)cn1
5 | 240 | CC(=O)N1CC(NC(=O)[C@@H]2NC3(CCCCC3)[C@@]3(C(=O)Nc4cc(Cl)ccc43)[C@H]2c2cccc(Cl)c2F)C1
6 | 6000 | Cc1oc([C@H]2[C@H](c3cccc(Cl)c3F)[C@]3(C(=O)Nc4cc(Cl)ccc43)C3(CCCCC3)N2C)nc1C(=O)O
7 | > 10000 | CN1[C@@H](c2nc(C(=O)O)cs2)[C@H](c2cccc(Cl)c2F)[C@]2(C(=O)Nc3cc(Cl)ccc32)C12CCCCC2

The remaining lines, values behind:

Row | SMILES | IC50 [nM]
8 | O=C(O)c1ccc(NC(=O)[C@@H]2NC3(CCCCC3)[C@@]3(C(=O)Nc4cc(Cl)ccc43)[C@H]2c2cccc(Cl)c2F)c(F)c1 | 230
9 | CS(=O)(=O)NC(=O)C12CCC(NC(=O)[C@@H]3NC4(CCCCC4)[C@@]4(C(=O)Nc5cc(Cl)ccc54)[C@H]3c3cccc(Cl)c3F)(CC1)CC2 | 370
10 | CS(=O)(=O)c1ccc(NC(=O)[C@@H]2NC3(CCCCC3)[C@@]3(C(=O)Nc4cc(Cl)ccc43)[C@H]2c2cccc(Cl)c2F)cc1 | 140
11 | O=C(NC12CCC(C(=O)O)(CC1)CC2)[C@@H]1NC2(CCC(F)(F)CC2)[C@@]2(C(=O)Nc3cc(Cl)ccc32)[C@H]1c1cccc(Cl)c1F | 170
12 | O=C(O)CCCNC(=O)[C@@H]1NC2(CCCCC2)[C@@]2(C(=O)Nc3cc(Cl)ccc32)[C@H]1c1cccc(Cl)c1F | 1400
13 | O=C(NC12CC(C(=O)O)(C1)C2)[C@@H]1NC2(CCCCC2)[C@@]2(C(=O)Nc3cc(Cl)ccc32)[C@H]1c1cccc(Cl)c1F | 540
14 | NS(=O)(=O)c1ccc(NC(=O)[C@@H]2NC3(CCCCC3)[C@@]3(C(=O)Nc4cc(Cl)ccc43)[C@H]2c2cccc(Cl)c2F)cc1 | 11200
15 | O=C(N[C@H]1CC[C@H](C(=O)O)CC1)[C@@H]1NC2(CCCCC2)[C@@]2(C(=O)Nc3cc(Cl)ccc32)[C@H]1c1cccc(Cl)c1F | 150
16 | COc1cc(NC(=O)[C@@H]2NC3(CCCCC3)[C@@]3(C(=O)Nc4cc(Cl)ccc43)[C@H]2c2cccc(Cl)c2F)ccc1C(=O)O | 120
17 | O=C(O)Cc1ccc(NC(=O)[C@@H]2NC3(CCCCC3)[C@@]3(C(=O)Nc4cc(Cl)ccc43)[C@H]2c2cccc(Cl)c2F)cc1 | 760
18 | COc1cc(C(N)=O)ccc1NC(=O)[C@@H]1NC2(CCCCC2)[C@@]2(C(=O)Nc3cc(Cl)ccc32)[C@H]1c1cccc(Cl)c1F | 120

System: not listed separately
Assay: in vivo
Conditions: rat, iv, 5 mg/kg

Row | AUC [ng·h/mL] | SMILES
19 | 4630 | CC(C)(C)C[C@@H]1N[C@@H](C(=O)N[C@H]2CC[C@H](O)CC2)[C@H](c2cccc(Cl)c2F)[C@]12C(=O)Nc1cc(Cl)ccc12 [SAR-405838]

System: not listed separately
Assay: in vivo
Conditions: rat, iv, 5 mg/kg
Remark: another data set of the same source

Row | Vd [L/kg] | SMILES
20 | 2.98 | CC(C)(C)C[C@@H]1N[C@@H](C(=O)N[C@H]2CC[C@H](O)CC2)[C@H](c2cccc(Cl)c2F)[C@]12C(=O)Nc1cc(Cl)ccc12 [SAR-405838]

System: not listed separately
Assay: physchem
Conditions: cell culture media

Row | remaining at 168 h [%] | SMILES
21 | 93 to 96 | CC(C)(C)C[C@@H]1N[C@@H](C(=O)N[C@H]2CC[C@H](O)CC2)[C@H](c2cccc(Cl)c2F)[C@]12C(=O)Nc1cc(Cl)ccc12 [SAR-405838]

System: not listed separately
Assay: physchem
Conditions: 1:1 MeOH/H2O solution

Row | remaining at 168 h [%] | SMILES
22 | 93 to 96 | CC(C)(C)C[C@@H]1N[C@@H](C(=O)N[C@H]2CC[C@H](O)CC2)[C@H](c2cccc(Cl)c2F)[C@]12C(=O)Nc1cc(Cl)ccc12 [SAR-405838]

System: not listed separately
Assay: physchem
Conditions: 1:1 CH3CN/H2O solution

Row | remaining at 168 h [%] | SMILES
23 | 93 to 96 | CC(C)(C)C[C@@H]1N[C@@H](C(=O)N[C@H]2CC[C@H](O)CC2)[C@H](c2cccc(Cl)c2F)[C@]12C(=O)Nc1cc(Cl)ccc12 [SAR-405838]

System: not listed separately
Assay: in vivo
Conditions: rat, iv, 5 mg/kg
Remark: another data set of the same source

Row | clearance [mL/min/kg] | SMILES
24 | 17.2 | CC(C)(C)C[C@@H]1N[C@@H](C(=O)N[C@H]2CC[C@H](O)CC2)[C@H](c2cccc(Cl)c2F)[C@]12C(=O)Nc1cc(Cl)ccc12 [SAR-405838]

System: not listed separately
Assay: in vivo
Conditions: rat, po, 25 mg/kg

Row | half-life [h] | SMILES
25 | 1.6 | CC(C)(C)C[C@@H]1N[C@@H](C(=O)N[C@H]2CC[C@H](O)CC2)[C@H](c2cccc(Cl)c2F)[C@]12C(=O)Nc1cc(Cl)ccc12 [SAR-405838]

System: SJSA-1
Assay: not given
Conditions: Homo sapiens, 50 mg/kg

Row | SMILES | TGI
26 | O=C(N[C@H]1CC[C@H](C(=O)O)CC1)[C@@H]1NC2(CCCCC2)[C@@]2(C(=O)Nc3cc(Cl)ccc32)[C@H]1c1cccc(Cl)c1F | Active
27 | CC(C)(C)C[C@@H]1N[C@@H](C(=O)N[C@H]2CC[C@H](O)CC2)[C@H](c2cccc(Cl)c2F)[C@]12C(=O)Nc1cc(Cl)ccc12 [SAR-405838] | Active
